In patent publication US8278311B2, “Substituted pyrimidine derivatives” (Abbott Laboratories, priority 2008, dated 2012):
Read-outs that look alike come from different tables or passages of the source.

Key:
histamine H4 receptor [1] = molecular target: T1, histamine H4 receptor (Homo sapiens, UniProt Q9H3N8); experiment: in vitro assay of histamine H4 activity using FLIPR-Ca+2 flux; format: cell-based; conditions: HEK-293 cells stably expressing histamine H4 receptor and Gαqi5, Fluo-4; Kb for antagonists and inverse agonists, EC50 for partial agonists
T1 construct: expressed in transfected cells
From the text: There are many methods available to show the effectiveness of compounds as histamine H4 receptor ligands. Histamine H4 receptors from mammalian species have been cloned. Methods to clone, express, and assess the potency and functional activity of such cloned genes are well known to those skilled in the art of molecular biology. Examples of methods of cloning and expressing histamine H4 receptors, and of assessing the potency and functional activity are described in Nguyen, et al. Molecular Pharmacology (2001) vol. 59 pp. 427-433; Zhu, et al. Molecular Pharmacology (2001) vol. 59 pp. 434-441; Coge, et al., Biochemical and Biophysical Research Communications (2001) vol. 284, pp. 301-309; Liu, et al. Molecular Pharmacology (2001) vol. 59 pp. 420-426; Liu, et al. Journal of Pharmacology and Experimental Therapeutics (2001) v. 299, pp. 121-130; and Thurmond, et al. Journal of Pharmacology and Experimental Therapeutics (2004) v. 309, pp. 404-413. In the present case, to determine the potency and effectiveness of representative compounds of this invention as histamine-H4 receptor ligands (H4 receptor ligands), the following tests were conducted according to previously described methods (see Esbenshade, et al., Biochemical Pharmacology (2004), vol. 68, pp. 933-945, and in Krueger, et al., Journal of Pharmacology and Experimental Therapeutics (2005) v. 314, pp. 271-281): histamine H4 receptors were cloned and stably expressed in HEK-293 (human embryonic kidney) cells coexpressing a Gαqi5. Before testing, cells are loaded with a Ca+^2 sensitive fluorescent dye, in this case Fluo-4 (Invitrogen, Carlsbad, Calif.). In the case of partial agonist or agonist ligands, addition of compound to the cells leads to the increase in intracellular Ca^+2 which is detected by FLIPR (Fluorescence Imaging Plate Reader; Molecular Devices, Sunnyvale, Calif.) technology. In a similar manner, compounds that are antagonists or inverse agonists, block the increase in fluorescence induced by the full histamine H4 agonist histamine, and partial agonists reduce the amount of fluorescence induced by the full histamine H4 agonist histamine. The fluorescence intensities measured before addition of the test compound are subtracted from the fluorescence intensities at later time points. Peak response values determined at each concentration of ligand are expressed as a percentage of the response obtained with the full agonist histamine. Concentration versus response data are analyzed to obtain compound potency as Kb values for antagonists and inverse agonists and as EC50 values for partial agonists.

histamine H4 receptor [2] = molecular target: T1, histamine H4 receptor; experiment: 3H-histamine competition binding assay
Description: The potency of compounds of the invention in displacing ^3H-histamine in competition binding assays is assessed by methods described in Esbenshade, et al., Biochemical Pharmacology (2004), vol. 68, pp. 933-945. In this assay, membranes were prepared from HEK-293 cells transiently transfected with the pClNeo expression vector harboring the histamine H4 receptor by homogenization of the cells on ice in TE buffer (50 mM Tris-HCl buffer, pH 7.4, containing 5 mM EDTA), 1 mM benzamidine, 2 μg/mL aprotinin, 1 μg/mL leupeptin, and 1 μg/mL pepstatin. The homogenate was centrifuged at 40,000 g for 20 minutes at 4° C. This step was repeated, and the resulting pellet was resuspended in TE buffer. Aliquots were frozen at −70° C. until needed. On the day of assay, membranes were thawed and diluted with TE buffer. Competition radioligand binding assays were performed with increasing concentrations of test compound in the presence of [^3H]-histamine incubated at 25° C. for 1 hour in a total volume of 0.5 mL of 50 mM Tris, 5 mM EDTA, pH 7.4. All binding reactions were terminated by filtration under vacuum onto polyethylenimine (0.3%) presoaked Unifilters (PerkinElmer Life Sciences) or Whatman GF/B filters (Whatman, Clifton, N.J.) followed by three brief washes with 4 mL of ice-cold TE buffer. Bound radiolabel was determined by liquid scintillation counting. For all of the radioligand competition binding assays, IC50 values and Hill slopes were determined by Hill transformation of the data and Ki values were determined by the Cheng-Prusoff equation. The following table of representative histamine H4 receptor ligands is provided, along with potency values: […]

[3] = membranes of HEK-293 cells transiently transfected with histamine H4 receptor, [3H]-histamine, 25° C., 1 hour, read-out: Binding assay Potency (Ki)

| Potency (histamine H4 receptor [1]) [nM] | Ki (histamine H4 receptor [2]; [3]) [nM] | Structure (SMILES) | Ki (histamine H4 receptor [2]) [nM] |
| --- | --- | --- | --- |
| 1.4 | 2.6 | CN[C@@H]1CCN(c2nc(N)nc3c2CC[C@@H]2CCCC[C@@H]32)C1 (mixture of isomers) [Example 16, trans-4-[(3R)-3-(methylamino)pyrrolidin-1-yl]-5,6,6a,7,8,9,10,10a-octahydrobenzo[h]quinazolin-2-amine] | – |
| 1.2 | – | Nc1nc2c(c(N3CC[C@@H](N)C3)n1)CC[C@@H]1CCCC[C@@H]21 (mixture of isomers) [Example 17, trans-4-[(3R)-3-aminopyrrolidin-1-yl]-5,6,6a,7,8,9,10,10a-octahydrobenzo[h]quinazolin-2-amine] | – |
| 1.6 | – | CN[C@@H]1CCN(c2nc(N)nc3c2CC[C@@H]2CCCC[C@H]32)C1 (mixture of isomers) [Example 19, cis-4-[(3R)-3-(methylamino)pyrrolidin-1-yl]-5,6,6a,7,8,9,10,10a-octahydrobenzo[h]quinazolin-2-amine] | – |
| 1.4 | – | Nc1nc2c(c(N3CC[C@@H](N)C3)n1)CC[C@@H]1CCCC[C@H]21 (mixture of isomers) [Example 20, cis-4-[(3R)-3-aminopyrrolidin-1-yl]-5,6,6a,7,8,9,10,10a-octahydrobenzo[h]quinazolin-2-amine] | – |
| 6.9 | 2 | Nc1nc2c(c(N3CCNCC3)n1)CC[C@@H]1CCCC[C@@H]21 (relative stereo) [Example 12, trans-4-piperazin-1-yl-5,6,6a,7,8,9,10,10a-octahydrobenzo[h]quinazolin-2-amine] | – |
| 3.3 | 1.8 | Nc1nc2c(c(N3CCNCC3)n1)CC[C@@H]1CCCC[C@H]21 (relative stereo) [Example 13, cis-4-piperazin-1-yl-5,6,6a,7,8,9,10,10a-octahydrobenzo[h]quinazolin-2-amine] | – |
| 1.5 | 0.9 | CNC1CN(c2nc(N)nc3c2CC[C@@H]2CCCC[C@@H]32)C1.O=C(O)C(F)(F)F.O=C(O)C(F)(F)F (relative stereo) [Example 14, trans-4-[3-(methylamino)azetidin-1-yl]-5,6,6a,7,8,9,10,10a-octahydrobenzo[h]quinazolin-2-amine bis(trifluoroacetate)] | – |
| 3.2 | 1 | CCNC1CN(c2nc(N)nc3c2CC[C@@H]2CCCC[C@@H]32)C1.O=C(O)C(F)(F)F.O=C(O)C(F)(F)F (relative stereo) [Example 15, trans-4-[3-(ethylamino)azetidin-1-yl]-5,6,6a,7,8,9,10,10a-octahydrobenzo[h]quinazolin-2-amine bis(trifluoroacetate)] | – |
| 3.0 | – | CNC1CN(c2nc(N)nc3c2CC[C@@H]2CCCC[C@H]32)C1 (relative stereo) [Example 22, cis-4-[3-(methylamino)azetidin-1-yl]-5,6,6a,7,8,9,10,10a-octahydrobenzo[h]quinazolin-2-amine] | – |
| 3.0 | – | CCNC1CN(c2nc(N)nc3c2CC[C@@H]2CCCC[C@H]32)C1 (relative stereo) [Example 23, cis-4-[3-(ethylamino)azetidin-1-yl]-5,6,6a,7,8,9,10,10a-octahydrobenzo[h]quinazolin-2-amine] | – |
| 91.2 | – | Nc1nc2c(c(N3C[C@H]4CCCN[C@H]4C3)n1)CCCC1C3C=CC(CC3)C21 (relative stereo) [Example 24, 4-cis-octahydro-6H-pyrrolo[3,4-b]pyridin-6-yl-6,7,7a,8,11,11a-hexahydro-5H-8,11-ethanobenzo[6,7]cyclohepta[1,2-d]pyrimidin-2-amine] | – |
| 89.1 | – | Nc1nc2c(c(N3C[C@H]4CCCN[C@H]4C3)n1)CCCC1C3CCC(CC3)C21 (relative stereo) [Example 27, 4-cis-octahydro-6H-pyrrolo[3,4-b]pyridin-6-yl-6,7,7a,8,9,10,11,11a-octahydro-5H-8,11-ethanobenzo[6,7]cyclohepta[1,2-d]pyrimidin-2-amine] | – |
| 5.9 | 3.3 | CN[C@@H]1CCN(c2nc(N)nc3c2CCC2=C3C3CCCCC3O2)C1 (stereo partly drawn) [Example 2, 4-[(3R)-3-(methylamino)pyrrolidin-1-yl]-5,6,7a,8,9,10,11,11a-octahydro[1]benzofuro[2,3-h]quinazolin-2-amine] | – |
| 16 | – | CN1CCCN(c2nc(N)nc3c2CCC2=C3C3CCCCC3O2)CC1 (stereo not shown) [Example 5, 4-(4-methyl-1,4-diazepan-1-yl)-5,6,7a,8,9,10,11,11a-octahydro[1]benzofuro[2,3-h]quinazolin-2-amine] | – |
| 25 | – | CN1CCN(c2nc(N)nc3c2CCC2=C3C3CCCCC3O2)CC1 (stereo not shown) [Example 6, 4-(4-methylpiperazin-1-yl)-5,6,7a,8,9,10,11,11a-octahydro[1]benzofuro[2,3-h]quinazolin-2-amine] | – |
| 4.1 | 12.6 | Nc1nc(N2CC[C@@H](N)C2)c2ccc3c(c2n1)C1CCCCC1O3 (stereo partly drawn) [Example 7, 4-[(3R)-3-aminopyrrolidin-1-yl]-7a,8,9,10,11,11a-hexahydro[1]benzofuro[2,3-h]quinazolin-2-amine] | – |
| 61.7 | – | Nc1nc(N2C[C@H]3CNC[C@H]32)c2ccc3c(c2n1)C1CCCCC1O3 (stereo partly drawn) [Example 8, 4-[(1R,5S)-3,6-diazabicyclo[3.2.0]hept-6-yl]-7a,8,9,10,11,11a-hexahydro[1]benzofuro[2,3-h]quinazolin-2-amine] | – |
| 16 | – | Nc1nc2c(c(N3CCCNCC3)n1)CCC1=C2C2CCCCC2O1 (stereo not shown) [Example 9, 4-(1,4-diazepan-1-yl)-5,6,7a8,9,10,11,11a-octahydro[1]benzofuro[2,3-h]quinazolin-2-amine] | – |
| 1260 | – | CC(C)N1CCCN(c2nc(N)nc3c2CCC2=C3C3CCCCC3O2)CC1 (stereo not shown) [Example 10, 4-(4-isopropyl-1,4-diazepan-1-yl)-5,6,7a,8,9,10,11,11a-octahydro[1]benzofuro[2,3-h]quinazolin-2-amine] | – |
| 2000 | – | Nc1nc2c(c(N3CCCN(C4CCC4)CC3)n1)CCC1=C2C2CCCCC2O1 (stereo not shown) [Example 11, 4-(4-cyclobutyl-1,4-diazepan-1-yl)-5,6,7a,8,9,10,11,11a-octahydro[1]benzofuro[2,3-h]quinazolin-2-amine] | – |
| 60.3 | – | Nc1nc2c(c(N3CCNCC3)n1)CCCC1C3C=CC(CC3)C21 (stereo not shown) [Example 26, 4-piperazin-1-yl-6,7,7a,8,11,11a-hexahydro-5H-8,11-ethanobenzo[6,7]cyclohepta[1,2-d]pyrimidin-2-amine] | – |

| Structure (SMILES) | Potency (histamine H4 receptor [1]) [nM] | Ki (histamine H4 receptor [2]; [3]) [nM] | Ki (histamine H4 receptor [2]) [nM] |
| --- | --- | --- | --- |
| Nc1nc2c(c(N3C[C@H]4CCCN[C@H]4C3)n1)CC[C@@H]1CCCC[C@H]21 (relative stereo) [Example 21, cis-4-[cis-octahydro-6H-pyrrolo[3,4-b]pyridin-6-yl]-5,6,6a,7,8,9,10,10a-octahydrobenzo[h]quinazolin-2-amine] | 8.3 | – | – |
| Nc1nc2c(c(N3CC4CCCNC4C3)n1)CCC1CCCCC21 (stereo not drawn) [Example 18, trans-4-[cis-octahydro-6H-pyrrolo[3,4-b]pyridin-6-yl]-5,6,6a7,8,9,10,10a-octahydrobenzo[h]quinazolin-2-amine] | 4.9 | – | 2.6 |
